Assay results as given in patent publication US20260265316A1, “IMMUNOTHERAPEUTIC METHODS, COMPOUNDS, AND COMPOSITIONS FOR TREATING OR PREVENTING CELIAC DISEASE” (DBV Technologies, priority 2023, published 2026).

Assay: Solubility upon drying on PET-Ti backing film and storage for 1 or 3 months at room temperature or 5° C.
Type: physicochemical
Experimental: Backing films were stored for 1 month at room temperature (A, B, C) or 5° C. (D, E, F), away from light and humidity.
Backing films were stored for 3 months at room temperature (A, B, C) or 5° C. (D, E, F), away from light and humidity.
In order to evaluate their solubility upon deposition on a patch backing film and a period of storage, the three polypeptide constructs and the four individual building blocks were each dried on a PET-Ti backing film as described above. Backing films were stored at room temperature or 5° C. for 1 or 3 months.

[1] = stored at 5° C. for 1 month, PBS 1×
[2] = stored at 5° C. for 1 month, artificial perspiration
[3] = stored at 5° C. for 1 month, water
[4] = stored at 5° C. for 3 months, PBS 1×
[5] = stored at 5° C. for 3 months, artificial perspiration
[6] = stored at 5° C. for 3 months, water
[7] = stored at room temperature for 1 month, PBS 1×
[8] = stored at room temperature for 1 month, artificial perspiration
[9] = stored at room temperature for 1 month, water
[10] = stored at room temperature for 3 months, PBS 1×
[11] = stored at room temperature for 3 months, artificial perspiration
[12] = stored at room temperature for 3 months, water

Substance	decrease in median percentage of soluble material recovered from the patch backing film compared to 4K [1]	decrease in median percentage of soluble material recovered from the patch backing film compared to Av6 [1]	decrease in median percentage of soluble material recovered from the patch backing film compared to Cv6 [1]	decrease in median percentage of soluble material recovered from the patch backing film compared to 4K [2]	decrease in median percentage of soluble material recovered from the patch backing film compared to Av6 [2]	decrease in median percentage of soluble material recovered from the patch backing film compared to Cv6 [2]	decrease in median percentage of soluble material recovered from the patch backing film compared to 4K [3]	decrease in median percentage of soluble material recovered from the patch backing film compared to Av6 [3]	decrease in median percentage of soluble material recovered from the patch backing film compared to Cv6 [3]	decrease in median percentage of soluble material recovered from the patch backing film compared to 4K [4]	decrease in median percentage of soluble material recovered from the patch backing film compared to Av6 [4]	decrease in median percentage of soluble material recovered from the patch backing film compared to Cv6 [4]	decrease in median percentage of soluble material recovered from the patch backing film compared to 4K [5]	decrease in median percentage of soluble material recovered from the patch backing film compared to Av6 [5]	decrease in median percentage of soluble material recovered from the patch backing film compared to Cv6 [5]	decrease in median percentage of soluble material recovered from the patch backing film compared to 4K [6]	decrease in median percentage of soluble material recovered from the patch backing film compared to Av6 [6]	decrease in median percentage of soluble material recovered from the patch backing film compared to Cv6 [6]	decrease in median percentage of soluble material recovered from the patch backing film compared to 4K [7]	decrease in median percentage of soluble material recovered from the patch backing film compared to Av6 [7]	further results
H-PQPEQPEQPFPEQPQ-NH2 [BB2a]	16%	7%	14%	14%	8%	7%	20%	10%	6%	16%	9%	16%	20%	15%	14%	19%	15%	13%	15%	11%	decrease in median percentage of soluble material recovered from the patch backing film compared to Cv6 [7]: 14%; decrease in median percentage of soluble material recovered from the patch backing film compared to 4K [8]: 14%; decrease in median percentage of soluble material recovered from the patch backing film compared to Av6 [8]: 1%; decrease in median percentage of soluble material recovered from the patch backing film compared to Cv6 [8]: 14%; decrease in median percentage of soluble material recovered from the patch backing film compared to 4K [9]: 18%; decrease in median percentage of soluble material recovered from the patch backing film compared to Av6 [9]: 9%; decrease in median percentage of soluble material recovered from the patch backing film compared to Cv6 [9]: 13%; decrease in median percentage of soluble material recovered from the patch backing film compared to 4K [10]: 17%; decrease in median percentage of soluble material recovered from the patch backing film compared to Av6 [10]: 17%; decrease in median percentage of soluble material recovered from the patch backing film compared to Cv6 [10]: 15%; decrease in median percentage of soluble material recovered from the patch backing film compared to 4K [11]: 16%; decrease in median percentage of soluble material recovered from the patch backing film compared to Av6 [11]: 10%; decrease in median percentage of soluble material recovered from the patch backing film compared to Cv6 [11]: 16%; decrease in median percentage of soluble material recovered from the patch backing film compared to 4K [12]: 15%; decrease in median percentage of soluble material recovered from the patch backing film compared to Av6 [12]: 10%; decrease in median percentage of soluble material recovered from the patch backing film compared to Cv6 [12]: 4%
H-PSGEGSFQPSQENPQ-NH2 [BB4a]	14%	5%	12%	13%	8%	7%	14%	4%	0%	17%	10%	17%	17%	11%	10%	18%	14%	12%	14%	10%	decrease in median percentage of soluble material recovered from the patch backing film compared to Cv6 [7]: 13%; decrease in median percentage of soluble material recovered from the patch backing film compared to 4K [8]: 14%; decrease in median percentage of soluble material recovered from the patch backing film compared to Av6 [8]: 1%; decrease in median percentage of soluble material recovered from the patch backing film compared to Cv6 [8]: 14%; decrease in median percentage of soluble material recovered from the patch backing film compared to 4K [9]: 15%; decrease in median percentage of soluble material recovered from the patch backing film compared to Av6 [9]: 7%; decrease in median percentage of soluble material recovered from the patch backing film compared to Cv6 [9]: 11%; decrease in median percentage of soluble material recovered from the patch backing film compared to 4K [10]: 11%; decrease in median percentage of soluble material recovered from the patch backing film compared to Av6 [10]: 11%; decrease in median percentage of soluble material recovered from the patch backing film compared to Cv6 [10]: 9%; decrease in median percentage of soluble material recovered from the patch backing film compared to 4K [11]: 12%; decrease in median percentage of soluble material recovered from the patch backing film compared to Av6 [11]: 6%; decrease in median percentage of soluble material recovered from the patch backing film compared to Cv6 [11]: 12%; decrease in median percentage of soluble material recovered from the patch backing film compared to 4K [12]: 13%; decrease in median percentage of soluble material recovered from the patch backing film compared to Av6 [12]: 9%; decrease in median percentage of soluble material recovered from the patch backing film compared to Cv6 [12]: 2%
